Experimental data reported in patent US6656509B1, “Combination of selenium-containing compounds with cytostatics” (Biosyn Arzneimittel GmbH, priority 1998, dated 2003).
Like-named read-outs stand apart in the source and are kept apart here.

Legend:
[1] = cited from earlier work
RXF 423 = test: clonogenic assay (colony forming assay); assay type: cell-based, human; details: RXF 423/16; X183AM
Description: Solid human tumor xenografts growing subcutaneously in serial passages in thymus-aplastic nude mice (NMRI nu/nu strain, obtained from our own breeding facility) were removed under sterile conditions, the cells were mechanically disaggregated and subsequently incubated with an enzyme cocktail consisting of collagenase (1.2-1.8 U/ml, Worthington), DNAse (375 U/ml, Boehringer Mannheim) und hyaluronidase (29 U/ml, Boehringer Mannheim) in RPMI 1640 at 37° C. for 30 minutes. The cell mixture was passed through sieves of 200 μm and 50 μm mesh size and washed thereafter twice with PBS. The percentage of viable cells was determined in a Neubauer counting chamber using trypan blue exclusion.
The clonogenic assay was performed according to a modified two-layer soft agar assay described by Hamburger and Salmon (Hamburger and Salmon, Science, 197: 461463, 1977). The bottom layer consisted of 0.2 ml Iscoves' Modified Dulbecco's Medium with 20% fetal calf serum and 0.75% agar. 8×10^3 to 1,6×10^4 cells were added to 0.2 ml of the same culture medium together with 0.4% agar and placed in already coated 24-multiwell dishes. Test substances were applied by continuous exposure (drug overlay) in 0.2 ml medium. Every dish included six control wells containing the vehicle- and drug-treated groups in triplicate at six concentrations.
Cultures were incubated at 37° and 7% CO2 in a humidified atmosphere for 5 to 15 days (depending on the doubling time of the tumor stem cells) and monitored for colony growth using an inverted microscope. Within this period, in vitro tumor growth led to the formation of colonies with a diameter of ≧50 μm. At the time of maximum colony formation counts were performed with an automatic image analysis system (OMNICOM Fas IV, Biosys GmbH). 24 hours prior to this assay, vital colonies were stained with a sterile aqueous solution of 2-(4-iodophenyl)-3-(4-nitrophenyl)-5-phenyltetrazolium chloride (1 mg/ml, 100 μI/well). Drug effects were expressed in terms of the percentage of surviving cells, obtained by comparison of the mean number of colonies in the treated plates with the mean colony count of the untreated controls (test-versus-control-group value, T/C=colony countTreated Group*100/colony countControl Group).
Coefficient of variation in the control group ≦50%. IC50 and IC70 values were determined by plotting compound concentration versus cell survival rate. Mean IC50 and IC70 values were calculated according to the formula: [formula]
with x=specific tumor xenograft and n=total number of tumor xenografts studied. If an IC50 or IC70 value could not be determined within the examined dose range, the lowest or highest concentration studied was used for the calculation.

[2] = cited from earlier work; remark: listed apart in the source

O=[Se]([O-])[O-].[Na+].[Na+] [sodium selenite]
plasma selenium ([1]; 8 hours after 10 mg selenium as sodium selenite): 770 μg/I | plasma selenium ([1]; 16 hours after 10 mg selenium as sodium selenite): 430 μg/I | time until selenium level in plasma again reached its initial value ([1]; after 10 mg selenium as sodium selenite): 24 h | dose from which gastrointestinal toxicity was observed (reversible) ([1]; infusion, tumor patients): about 20 mg selenium | selenium level in plasma ([1]; within 30 minutes after 10 mg selenium as sodium selenite, infused, rose from 200 μg/l): 1200 µg/L | Test/control (%) at drug concentration [μM] 1. (RXF 423): 92% | Test/control (%) at drug concentration [μM] 10. (RXF 423): 110% | Test/control (%) at drug concentration [μM] 100. (RXF 423): 0% | Test/control (%) at drug concentration [μM] .001 (RXF 423): 99% | Test/control (%) at drug concentration [μM] .01 (RXF 423): 111% | Test/control (%) at drug concentration [μM] .1 (RXF 423): 120% | Test/control (%) class at drug concentration [μM] 1. (RXF 423): − (− (T/C ≧ 50%)) | Test/control (%) class at drug concentration [μM] 10. (RXF 423): − (− (T/C ≧ 50%)) | Test/control (%) class at drug concentration [μM] 100. (RXF 423): +++ (+++ (T/C ≦ 10%)) | Test/control (%) class at drug concentration [μM] .001 (RXF 423): − (− (T/C ≧ 50%)) | Test/control (%) class at drug concentration [μM] .01 (RXF 423): − (− (T/C ≧ 50%)) | Test/control (%) class at drug concentration [μM] .1 (RXF 423): − (− (T/C ≧ 50%)) | dosage considered harmless in sensitive persons ([2]; humans, sensitive persons): up to 500 μg per day | safe maximum daily intake of selenium ([2]; humans, inferred from chronic toxicity observations): 820 µg | daily supply after which clinical signs of selenosis were observed ([2]; study carried out in China): 3200 to 6700 µg
